Values after ≈ are worked out from the molar mass of the structure shown.
How the values were obtained:
[1] = Hemolytic activity in rabbit RBC after 60 mins; assay type: ADME, cell-based, Oryctolagus cuniculus, Erythrocyte; conditions: rabbit red blood cells (erythrocytes)
Staphylococcus aureus [2] = experiment: Antibacterial activity against Staphylococcus aureus ATCC 29213 assessed as reduction in bacterial growth after 24 hrs by CLSI based broth micro dilution method; assay type: functional
Staphylococcus aureus [3] = experiment: Antibacterial activity against methicillin-resistant Staphylococcus aureus NCTC10442 assessed as reduction in bacterial growth after 24 hrs by CLSI based broth micro dilution method; assay type: functional
Staphylococcus aureus [4] = experiment: Antibacterial activity against methicillin-resistant Staphylococcus aureus N315 assessed as reduction in bacterial growth after 24 hrs by CLSI based broth micro dilution method; assay type: functional
Escherichia coli = experiment: Antibacterial activity against Escherichia coli ATCC 25922 assessed as reduction in bacterial growth after 24 hrs by CLSI based broth micro dilution method; assay type: functional
Staphylococcus aureus [5] = experiment: Bactericidal activity against Staphylococcus aureus ATCC 29213 assessed as reduction in bacterial load at 2 time of MIC concentration preincubated for 240 mins followed by compound washout further subculturing and measured after 24 hrs by time-kill assay; assay type: functional; conditions: 4 h
Staphylococcus aureus [6] = experiment: Antibacterial activity against Staphylococcus aureus ATCC 29213 infected in C57BL6 mouse assessed as reduction in bacterial load at 33.65 mmol/L, administered topically at 2 hrs interval for 3 days; assay type: functional; conditions: time 3 day
Staphylococcus aureus [7] = experiment: Bactericidal activity against Staphylococcus aureus ATCC 29213 assessed as reduction in bacterial load at MIC concentration preincubated for 240 mins followed by compound washout further subculturing and measured after 24 hrs by time-kill assay; assay type: functional; conditions: 4 h

| Compound | HC50 at 1 h [1] [µg/mL] | MIC (Staphylococcus aureus [2]) [µg/mL] | MIC (Staphylococcus aureus [3]) [µg/mL] | MIC (Staphylococcus aureus [4]) [µg/mL] | MIC (Escherichia coli) [µg/mL] | log(activity) (Staphylococcus aureus [5]) | log(activity) (Staphylococcus aureus [6]) | log(activity) (Staphylococcus aureus [7]) |
| --- | --- | --- | --- | --- | --- | --- | --- | --- |
| CC(C)=CCOc1ccc(/C=C/C(=O)c2ccc(OCC=C(C)C)cc2OCC(=O)O)cc1 [SOFALCONE] | > 200 | > 50 | > 50 | 50 (≈ 111 µM) | > 50 | – | – | – |
| CC(C)=CCOc1ccc(/C=C/C(=O)c2ccc(OCC=C(C)C)cc2OCC(=O)N[C@@H](CCCNC(=N)N)C(=O)NCCCN(C)C)cc1 | 181 | – | – | – | 25 (≈ 36.2 µM) | – | – | – |
| CC(C)=CCOc1ccc(/C=C/C(=O)c2ccc(OCC=C(C)C)cc2OCC(=O)N[C@@H](CCCNC(=N)N)C(=O)NCCCN)cc1 | 277 | – | – | – | 6.25 (≈ 9.43 µM) | – | – | – |
| CC(C)=CCOc1ccc(/C=C/C(=O)c2ccc(OCC=C(C)C)cc2OCC(=O)NCCCN2CCN(C)CC2)cc1 | 36.5 | 6.25 (≈ 10.6 µM) | 6.25 (≈ 10.6 µM) | 6.25 (≈ 10.6 µM) | > 100 | – | – | – |
| CCN(CC)CCCNC(=O)COc1cc(OCC=C(C)C)ccc1C(=O)/C=C/c1ccc(OCC=C(C)C)cc1 | 65.7 | 6.25 (≈ 11.1 µM) | 6.25 (≈ 11.1 µM) | – | > 50 | – | – | – |
| CN[C@H](CC(C)C)C(=O)N[C@H]1C(=O)N[C@@H](CC(N)=O)C(=O)N[C@H]2C(=O)N[C@H]3C(=O)N[C@H](C(=O)N[C@H](C(=O)O)c4cc(O)cc(O)c4-c4cc3ccc4O)[C@H](O)c3ccc(c(Cl)c3)Oc3cc2cc(c3O[C@@H]2O[C@H](CO)[C@@H](O)[C@H](O)[C@H]2O[C@H]2C[C@](C)(N)[C@H](O)[C@H](C)O2)Oc2ccc(cc2Cl)[C@H]1O [VANCOMYCIN] | – | 0.78 (≈ 0.538 µM) | 1.56 (≈ 1.08 µM) | 1.56 (≈ 1.08 µM) | – | 1.1 | 4.16 | 1.1 |
| O=C(N[C@H](CO)[C@H](O)c1ccc([N+](=O)[O-])cc1)C(Cl)Cl [CHLORAMPHENICOL] | – | – | – | – | 3.13 (≈ 9.69 µM) | – | – | – |
| COC(=O)[C@H](CCCNC(=N)N)NC(=O)[C@H](CCCNC(=N)N)NC(=O)COc1cc(OCC=C(C)C)ccc1C(=O)/C=C/c1ccc(OCC=C(C)C)cc1 | 120 | 3.13 (≈ 4.03 µM) | 3.13 (≈ 4.03 µM) | 3.13 (≈ 4.03 µM) | 12.5 (≈ 16.1 µM) | – | – | – |
| CC(C)=CCOc1ccc(/C=C/C(=O)c2ccc(OCC=C(C)C)cc2OCC(=O)NCCCN2CCCC2)cc1 | 53.4 | 6.25 (≈ 11.1 µM) | 6.25 (≈ 11.1 µM) | 3.13 (≈ 5.58 µM) | > 50 | – | – | – |
| CC(C)=CCOc1ccc(/C=C/C(=O)c2ccc(OCC=C(C)C)cc2OCC(=O)NCCCN(C)C)cc1 | 78.2 | 12.5 (≈ 23.4 µM) | 12.5 (≈ 23.4 µM) | 12.5 (≈ 23.4 µM) | > 50 | – | – | – |
| COC(=O)[C@H](Cc1c[nH]cn1)NC(=O)COc1cc(OCC=C(C)C)ccc1C(=O)/C=C/c1ccc(OCC=C(C)C)cc1 | > 200 | > 50 | – | – | > 50 | – | – | – |
| CC(C)=CCOc1ccc(/C=C/C(=O)c2ccc(OCC=C(C)C)cc2OCC(=O)NCCCNC(=N)N)cc1 | 56.5 | 1.56 (≈ 2.84 µM) | 1.56 (≈ 2.84 µM) | 1.56 (≈ 2.84 µM) | 25 (≈ 45.6 µM) | – | – | – |
| CC(C)=CCOc1ccc(/C=C/C(=O)c2ccc(OCC=C(C)C)cc2OCC(=O)NCCCN)cc1 | 47 | 3.13 (≈ 6.18 µM) | 3.13 (≈ 6.18 µM) | 1.56 (≈ 3.08 µM) | 50 (≈ 98.7 µM) | – | – | – |
| COC(=O)[C@H](CCCNC(=N)N)NC(=O)COc1cc(OCC=C(C)C)ccc1C(=O)/C=C/c1ccc(OCC=C(C)C)cc1 | 70 | 1.56 (≈ 2.51 µM) | 1.56 (≈ 2.51 µM) | 1.56 (≈ 2.51 µM) | 50 (≈ 80.5 µM) | – | – | – |
| CCCNC(=O)COc1cc(OCC=C(C)C)ccc1C(=O)/C=C/c1ccc(OCC=C(C)C)cc1 | > 200 | > 50 | > 50 | > 50 | > 100 | – | – | – |
| CCCCN(CCCC)CCCNC(=O)COc1cc(OCC=C(C)C)ccc1C(=O)/C=C/c1ccc(OCC=C(C)C)cc1 | > 200 | 12.5 (≈ 20.2 µM) | 6.25 (≈ 10.1 µM) | 6.25 (≈ 10.1 µM) | > 50 | – | – | – |
| CC(C)=CCOc1ccc(/C=C/C(=O)c2ccc(OCC=C(C)C)cc2OCC(=O)N[C@@H](CCCNC(=N)N)C(N)=O)cc1 | 78.7 | 3.13 (≈ 5.17 µM) | 3.13 (≈ 5.17 µM) | 1.56 (≈ 2.58 µM) | 12.5 (≈ 20.6 µM) | – | – | – |
